Key:
[1] = test system: Antigen-Induced Hypertussive Activity to Citric Acid in Guinea Pigs; assay: Antigen-Induced Hypertussive Model; assay type: in vivo, guinea pig; details: sensitized guinea pigs exposed to inhaled ovalbumin
Method: The effects of the compound are then assessed on the hypertussive response that occurs 72 hours post aerosol exposure to antigen or LTD4 exposure. Treatment of the animals occurs with the drug prior and/or after antigen or LTD4 challenge, but not on the day of citric acid challenge. Inhalation of citric acid (CA; 0.4% for 1 minute) induced 11 to 15 coughs during the exposure and 12-minute monitoring period in conscious guinea pigs.

[2] = test system: Citric Acid-Induced Cough in Guinea Pigs; assay: Citric Acid Induced Cough Model (direct antitussive activity); assay type: in vivo, guinea pig; details: conscious guinea pigs, inhaled citric acid (0.4% for 1 minute) cough challenge; FIG. 4
Method: The directed antitussive activity of the compound in question if first assessed, by a 10 to 30 minute pretreatment period by intraperitoneal injection or a 1 hour pretreatment period for oral administration. The animals (guinea pigs) are then subjected to an inhaled citric acid-induced cough challenge. Inhalation of citric acid (CA; 0.4% for 1 minute) induced 11 to 15 coughs during the exposure and 12-minute monitoring period in conscious guinea pigs.

[3] = test system: LTD4-induced hypertussive response in the Guinea Pig; assay: LTD4-Induced Hypertussive Model; assay type: in vivo; details: oral 30 mg/kg b.i.d.; LTD4 inhalation 10 ug/ml for 1 minute; 72 hours after exposure
Method: The effects of the compound are then assessed on the hypertussive response that occurs 72 hours post aerosol exposure to antigen or LTD4 exposure. Treatment of the animals occurs with the drug prior and/or after antigen or LTD4 challenge, but not on the day of citric acid challenge. Similarly, inhalation of LTD4 (10 ug/ml for 1 minute) increased cough incidence and airway esoinophiles 72 hours after exposure. Oral treatment with Compound I (30 mg/kg, b.i.d.), blocked the LTD4-induced esoinophilia, and normalized the cough response, as shown in FIG. 5 herein.

## COc1nccc(-c2c(-c3ccc(F)cc3)ncn2[C@H]2CC[C@H](O)CC2)n1 [Compound I, trans-1-(4-Hydroxycyclohexyl)-4-(4-fluorophenyl)-5-[(2-methoxy)pyrimidin-4-yl]imidazole]
[1]; bronchoalveolar lavage
  airway eosinophilia: reduce airway eosinophilia
[1]; citric acid challenge 72 hours post antigen
  hypertussive state (citric acid-induced cough incidence): normalizes the hypertussive state
[2]
  direct antitussive effect: no direct antitussive effect
[3]
  LTD4-induced eosinophilia: blocked
  cough response: normalized
